Assay results from patent US4352802A, “Bicyclo[3.3.1]nonyl-benzamide” (Beecham Group Limited, priority 1980, dated 1982).

Assays:
Assay type in all cases: in vivo
[1] = tested on: Dopamine Receptor; experiment: Inhibition of apomorphine induced climbing in the mouse (dopamine receptor blocking activity in the central nervous system); details: p.o., apomorphine 1 mg/kg s.c., not necessarily the lowest active dose
Procedure: II. Dopamine Receptor Blocking Activity in the Central Nervous System
Compounds were tested for inhibition of apomorphine induced climbing in the mouse. The test is based on that described by Protais, P., Constantin, J. and Schwartz J. C. (1976), Psychopharmacology, 50, 1-6.
Apomorphine 1 mg/kg s.c. induces mice to climb the wall of a wire cage (inverted food hopper-11×7.5×18 cm high). Mice acclimatised in their home cages in groups of 5 are placed under the hoppers immediately after the injection of apomorphine 1 mg/kg s.c. At 10,20 and 30 minutes after injection climbing behaviour is scored. The mice are observed for 30 seconds and scored according to the position they spend the majority of time in, score 0--four paws on floor of cage; score 1--[…]; score 2--all paws on wall of cage. The scores at all 3 times and for each mouse are summed and mice drug treated orally compared to mice receiving apomorphine only. A saline only treated group is also included and any score, generally <5% of maximum taken into account.

[2] = tested on: vomiting response to apomorphine HCl; experiment: Anti-emetic activity in the dog (apomorphine-induced vomiting); details: Canis lupus familiaris, sc, 30 minutes prior to apomorphine HCl 0.1 mg/kg s.c.
Procedure: I. Anti-emetic activity in the dog
Compounds were administered subcutaneously 30 minutes prior to administration of a standard dose of apomorphine HCl (0.1 mg/kg subcutaneously) and the vomiting response compared to that obtained when the same animals were dosed with apomorphine HCl and vehicle only.

[3] = tested on: inhibitory effect of 6,7-ADTN on gastric motility; experiment: Gastric motility testing in the rat (reversal of 6,7-ADTN inhibition); details: conscious chronic gastric fistula rat, 1 mg/kg s.c., 10 minutes after 6,7-ADTN 1 mg/kg s.c.
Procedure: III. Gastric Motility Testing in the rat
The compounds were tested for ability to reverse the inhibitory effect of 6,7-ADTN on gastric motility as recorded by an open tipped catheter in the conscious chronic gastric fistula rat. Administration of 1 mg/kg s.c. of 6,7-ADTN reduced basal gastric motor activity and this was reversed by the administration of the compound administered 10 minutes after the 6,7-ADTN. […] For subcutaneous testing the compound was dissolved in water by the addition of tartaric acid (1/2 mole per mole of compound).

[4] = tested on: Dopamine Receptor; experiment: Inhibition of apomorphine induced climbing in the mouse (dopamine receptor blocking activity in the central nervous system); details: s.c., apomorphine 1 mg/kg s.c., not necessarily the lowest active dose

Structure (SMILES) | Active Dose (inhibition of apomorphine induced climbing) [1] [mg/kg] | further results
COc1cc(NC(C)=O)c(Cl)cc1C(=O)N[C@@H]1C[C@H]2COC[C@@H](C1)N2Cc1ccccc1 [Compound 1, 2-Methoxy-5-chloro-4-acetamido-N-[9-benzyl-9-aza-3-oxabicyclo(3,3,1)nonan-7β-yl]-benzamide] | 2 | 
COc1cc(N)c(Cl)cc1C(=O)N[C@@H]1C[C@H]2COC[C@@H](C1)N2Cc1ccccc1 [Compound 2, 2-Methoxy-5-chloro-4-amino-N-[9-benzyl-9-aza-3-oxabicyclo(3,3,1)nonan-7β-yl]-benzamide] | 1 | ED50 [2]: 0.005 mg/kg; Reversal of the action of 6,7-ADTN on gastric motility [3]: reversed the action of 6,7-ADTN
COc1ccc(S(C)(=O)=O)cc1C(=O)N[C@@H]1C[C@H]2CSC[C@@H](C1)N2Cc1ccccc1 [Compound 5, 2-Methoxy-5-methylsulphonyl-N-[9-benzyl-9-aza-3-thiabicyclo (3,3,1)nonan-7β-yl]benzamide] |  | ED50 [2]: 0.1 mg/kg; Reversal of the action of 6,7-ADTN on gastric motility [3]: reversed the action of 6,7-ADTN; Active Dose (inhibition of apomorphine induced climbing) [4]: 50 mg/kg
COc1cccc(C(=O)N[C@@H]2C[C@H]3COC[C@@H](C2)N3Cc2ccccc2)c1OC [Compound 6, 2,3-Dimethoxyj-[N-(9-benzyl-9-aza-3-oxabicyclo(3,3,1)nonan-7β-yl)]benzamide] | 2 | 
COc1cc(N)c(Cl)cc1C(=O)N[C@@H]1C[C@H]2COC[C@@H](C1)N2Cc1ccc(Cl)cc1 [Compound 18, 2-Methoxy-5-chloro-4-amino-[N-(9-(4-chlorobenzyl)-9-aza-3-oxabicyclo(3,3,1)nonan-7β-yl)]benzamide] | 10 | 
COc1ccc(CN2[C@@H]3COC[C@H]2C[C@H](NC(=O)c2cc(Cl)c(N)cc2OC)C3)cc1 [Compound 19, 2-Methoxy-5-chloro-4-amino-[N-(9-(4-methoxybenzyl)9-aza-3-oxabicyclo(3,3,1)nonan-7β-yl)]benzamide] | 10 | 
COc1cc(N)c(Cl)cc1C(=O)N[C@@H]1C[C@H]2COC[C@@H](C1)N2Cc1ccc(Cl)c(Cl)c1 [Compound 20, 2-Methoxy-5-chloro-4-amino-[N-(9-(3,4-dichlorobenzyl)-9-aza-3-oxabicyclo(3,3,1)nonan-7β-yl)]benzamide] | 10 | 
COc1cc(N)c(Cl)cc1C(=O)N[C@@H]1C[C@H]2COC[C@@H](C1)N2Cc1cccc(C(F)(F)F)c1 [Compound 21, 2-Methoxy-5-chloro-4-amino-[N-(9-(3-trifluoromethylbenzyl)-9-aza-3-oxabicyclo(3,3,1)nonan-7β-yl)]benzamide] | 50 | 
COc1cc(N)c(Cl)cc1C(=O)N[C@@H]1C[C@H]2COC[C@@H](C1)N2Cc1ccc(C)cc1 [Compound 22, 2-Methoxy-5-chloro-4-amino-[N-(9-(4-methylbenzyl)-9-aza-3-oxabicyclo(3,3,1)nonan-7β-yl)]benzamide] | 10 | 
CCCCCCN1[C@@H]2COC[C@H]1C[C@H](NC(=O)c1cc(Cl)c(N)cc1OC)C2 [Compound 23, 2-Methoxy-5-chloro-4-amino[N-(9-(n-hexyl)-9-aza-3-oxabicyclo(3,3,1)nonan-7β-yl)]benzamide] | 10 | 
COc1cc(N)c(Cl)cc1C(=O)N[C@@H]1C[C@H]2COC[C@@H](C1)N2Cc1cccs1 [Compound 24, 2-Methoxy-5-chloro-4-amino-[N-(9-(2-thenyl)-9-aza-3-oxabicyclo(3,3,1)nonan-7β-yl)]benzamide] | 10 | 
COc1cc(N)c(Cl)cc1C(=O)N[C@@H]1C[C@H]2COC[C@@H](C1)N2CCC(C)C [Compound 25, 2-Methoxy-5-chloro-4-amino-[N-(9-(3-methylbutyl)-9-aza-3-oxabicyclo(3,3,1)nonan-7β-yl)]benzamide] | 10 | 
COc1cc(N)c(Cl)cc1C(=O)N[C@@H]1C[C@H]2COC[C@@H](C1)N2CC1CCCCC1 [Compound 26] | 10 | 
